Source: ChEMBL document CHEMBL1201862, “PubChem BioAssay data set” (2004)
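Step 1: Grow cells in 96-well plates. Step 2: Expose to compound for 48 hours at 5 concentrations. Step 3: Interpolate endpoints linearly; if unreached, use highest concentration. At the GI50, growth is halved.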 Activity calls are given as the source filed them. Rule as the data show it: active = GI50 up to about 1.1 µM and inactive = higher.

What was measured:
Test in all cases: inhibition of tumour cell growth, NCI panel, 48 h
[1] = test system: CCRF-CEM
[2] = test system: COLO 205
[3] = test system: EKVX
[4] = test system: HCT-116
[5] = test system: HCT-15
[6] = test system: HOP-62
[7] = test system: IGROV-1
[8] = test system: K562
[9] = test system: LXFL 529
[10] = test system: Malme-3M
[11] = test system: NCI-H522
[12] = test system: OVCAR-5
[13] = test system: RPMI-8226
[14] = test system: SK-MEL-28
[15] = test system: SK-OV-3
[16] = test system: SNB-19
[17] = test system: SNB-75
[18] = test system: RXF 393
[19] = test system: BT-549
[20] = test system: Hs-578T

SMILES | GI50 [1] | GI50 [2] | GI50 [3] | GI50 [4] | GI50 [5] [µM] | GI50 [6] | GI50 [7] | GI50 [8] | GI50 [9] | GI50 [10] | GI50 [11] | GI50 [12] | GI50 [13] | GI50 [14] | GI50 [15] | GI50 [16] | GI50 [17] | GI50 [18] | GI50 [19] | GI50 [20]
c1ccc(C2=NN(c3ccccc3)C3(S2)SC(c2ccccc2)(c2ccccc2)c2ccccc23)cc1 (stereo unspecified) | > 100 µM (inactive) | > 100 µM (inactive) | > 100 µM (inactive) | > 100 µM (inactive) | > 100 | > 100 µM (inactive) | > 100 µM (inactive) | > 100 µM (inactive) | > 100 µM (inactive) | > 100 µM (inactive) | > 100 µM (inactive) | > 100 µM (inactive) | > 100 µM (inactive) | > 100 µM (inactive) | > 100 µM (inactive) | > 100 µM (inactive) | > 100 µM (inactive) | – | – | –
CC(C)c1cccc(C(C)C)c1NC(=O)C(=O)Cc1nc2ccc([N+](=O)[O-])cc2nc1O | 18.6 µM (inactive) | 41.8 µM (inactive) | 44.2 µM (inactive) | 39.2 µM (inactive) | 9.31 | – | > 100 µM (inactive) | 30.2 µM (inactive) | 28.2 µM (inactive) | > 100 µM (inactive) | 6.35 µM (inactive) | > 100 µM (inactive) | – | 86.1 µM (inactive) | > 100 µM (inactive) | > 100 µM (inactive) | > 100 µM (inactive) | > 100 µM (inactive) | – | –
Cn1cnc2[nH]c(=O)[nH]c(=S)c21 | > 100 µM (inactive) | > 100 µM (inactive) | > 100 µM (inactive) | > 100 µM (inactive) | > 100 | > 100 µM (inactive) | > 100 µM (inactive) | > 100 µM (inactive) | > 100 µM (inactive) | > 100 µM (inactive) | > 100 µM (inactive) | > 100 µM (inactive) | > 100 µM (inactive) | – | > 100 µM (inactive) | > 100 µM (inactive) | > 100 µM (inactive) | > 100 µM (inactive) | – | –
NNC(=O)C(=O)N/N=C(\CCC(=O)Nc1ccc(Cl)cc1)Cc1nc2ccccc2s1 | 3.32 µM (inactive) | 32.7 µM (inactive) | 27.4 µM (inactive) | 28.1 µM (inactive) | 19.1 | 53.2 µM (inactive) | 13.6 µM (inactive) | 18.9 µM (inactive) | 26.4 µM (inactive) | 44.7 µM (inactive) | 15.5 µM (inactive) | 33.1 µM (inactive) | 25.6 µM (inactive) | 71.8 µM (inactive) | 27.3 µM (inactive) | 30.5 µM (inactive) | 81.1 µM (inactive) | 17.2 µM (inactive) | – | –
O=C1CCCC2=C(N1)C(=O)C=CC2=O | 10.6 µM (inactive) | 23.8 µM (inactive) | 34.4 µM (inactive) | 33.7 µM (inactive) | 42.2 | 44.4 µM (inactive) | 43 µM (inactive) | 6.73 µM (inactive) | > 58.7 µM (inactive) | 39.4 µM (inactive) | 13.6 µM (inactive) | 33.4 µM (inactive) | 23.9 µM (inactive) | 45.4 µM (inactive) | > 100 µM (inactive) | 44.1 µM (inactive) | 43.8 µM (inactive) | 45 µM (inactive) | 16.7 µM (inactive) | 29 µM (inactive)
CCCCCCCCCCCCOC(=N)N1CCOCC1 | 2.26 µM (inactive) | 1.75 µM (inactive) | 12.9 µM (inactive) | 8.39 µM (inactive) | 4.08 | 17.3 µM (inactive) | 12.6 µM (inactive) | 1.88 µM (inactive) | 4.06 µM (inactive) | 19 µM (inactive) | 14.6 µM (inactive) | 14.9 µM (inactive) | 1.87 µM (inactive) | 12.2 µM (inactive) | 17 µM (inactive) | 18.5 µM (inactive) | 13.7 µM (inactive) | 8.99 µM (inactive) | – | –
